Measured values reported in patent US20230085307A1, “PYRIDAZINONE COMPOUND AND HERBICIDE” (NISSAN CHEMICAL CORPORATION, priority 2019, published 2023).

How the values were obtained:
oval-leafed pondweed = assay: Test Example 2: herbicidal activity, application during weed generation under submerged conditions (Table 17, symbol C); format: in vivo, oval-leafed pondweed (Monochoria vaginalis); conditions: AAH 320 g/ha; application during weed generation, submerged conditions
Procedure, shortened: (§1)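 3-wk visual-criteria score after one water-surface dose. Emulsion formulation, water-diluted to set rate; applied at 1–2 leaf stage; alluvial soil, 4 cm standing water; seeds co-sown; greenhouse 25–30° C.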

wild oat = assay: Test Example 4: herbicidal effect by soil treatment (Table 19, symbol I); format: in vivo, wild oat (Avena fatua); conditions: amount of applied herbicide 320 g/ha
Procedure, shortened: (§2)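 Soil-surface application: an emulsion agent diluted with water to the predetermined dose is sprayed uniformly over seeds lying under roughly 1.5 cm of sterilized diluvial soil. Boxes stay in a greenhouse at 25° C. to 30° C. Three weeks later, each species is graded on previously defined criteria.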

Japanese bulrush = assay: Test Example 1: herbicidal activity, application before weed generation under submerged conditions (Table 16, symbol B); format: in vivo, Japanese bulrush (Schoenoplectus juncoides); conditions: 320 g/ha applied herbicide
Procedure, shortened: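 Alluvial soil was flooded to 4 cm depth, weed seeds were sown mixed and 2.5-leaf rice seedlings were transplanted. On sowing day, the compound's emulsion, diluted in water to a set dose, was applied to the water surface. Plants grew at 25–30 °C and were scored 0–5 after three weeks.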

chickweed = assay: Test Example 5: herbicidal effect by foliage application, plastic box (Table 20, symbol P); format: in vivo, common chickweed (Stellaria media); conditions: foliage application, AAH 320 g/ha, evaluated three weeks after application
Procedure, shortened: (§3)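 Sow seeds spot-wise in sterilized diluvial soil; cover with ~1.5 cm soil. Grow 14 days in greenhouse, 25° C. to 30° C. Spray foliage with emulsion diluted to predetermined amount. Rate effect after 3 weeks.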

windgrass = assay: Test Example 4: herbicidal effect by soil treatment (Table 19, symbol L); format: in vivo, windgrass (Apera spica-venti); conditions: amount of applied herbicide 320 g/ha
Procedure, shortened: as §2

green foxtail = assay: Test Example 5: herbicidal effect by foliage application, plastic box (Table 20, symbol G); format: in vivo, green foxtail (Setaria viridis); conditions: foliage application, AAH 320 g/ha, evaluated three weeks after application
Procedure, shortened: as §3

southern crabgrass = assay: Test Example 4: herbicidal effect by soil treatment (Table 19, symbol F); format: in vivo, southern crabgrass (Digitaria ciliaris); conditions: amount of applied herbicide 320 g/ha
Procedure, shortened: as §2

Chinese sprangletop = assay: Test Example 3: herbicidal effect by foliage application, Wagner pot (Table 18, symbol D); format: in vivo, chinese sprangletop (Leptochloa chinensis); conditions: amount of applied herbicide 320 g/ha
Procedure, shortened: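 Plants were sown in alluvial soil held under 0.1–0.5 cm standing water and grown 14 days in a greenhouse at 25–30 °C. An emulsifiable formulation, water-diluted to the set dose, was then sprayed onto the foliage, and effects were scored three weeks later using previously defined criteria.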

late watergrass = assay: Test Example 2: herbicidal activity, application during weed generation under submerged conditions (Table 17, symbol A); format: in vivo, late watergrass (Echinochloa oryzicola); conditions: AAH 320 g/ha; application during weed generation, submerged conditions
Procedure, shortened: as §1

Italian ryegrass [1] = assay: Test Example 4: herbicidal effect by soil treatment (Table 19, symbol K); format: in vivo, Italian ryegrass (Lolium multiflorum); conditions: amount of applied herbicide 320 g/ha
Procedure, shortened: as §2

Italian ryegrass [2] = assay: Test Example 5: herbicidal effect by foliage application, plastic box (Table 20, symbol K); format: in vivo, Italian ryegrass (Lolium multiflorum); conditions: foliage application, AAH 320 g/ha, evaluated three weeks after application
Procedure, shortened: as §3

lambsquarters [3] = assay: Test Example 5: herbicidal effect by foliage application, plastic box (Table 20, symbol O); format: in vivo, lambsquarters (Chenopodium album); conditions: foliage application, AAH 320 g/ha, evaluated three weeks after application
Procedure, shortened: as §3

redroot pigweed = assay: Test Example 5: herbicidal effect by foliage application, plastic box (Table 20, symbol N); format: in vivo, redroot pigweed (Amaranthus retroflexus); conditions: foliage application, AAH 320 g/ha, evaluated three weeks after application
Procedure, shortened: as §3

lambsquarters [4] = assay: Test Example 4: herbicidal effect by soil treatment (Table 19, symbol O); format: in vivo, lambsquarters (Chenopodium album); conditions: amount of applied herbicide 320 g/ha
Procedure, shortened: as §2

blackgrass = assay: Test Example 4: herbicidal effect by soil treatment (Table 19, symbol J); format: in vivo, blackgrass (Alopecurus myosuroides); conditions: amount of applied herbicide 320 g/ha
Procedure, shortened: as §2

velvetleaf = assay: Test Example 5: herbicidal effect by foliage application, plastic box (Table 20, symbol M); format: in vivo, velvetleaf (Abutilon theophrasti); conditions: foliage application, AAH 320 g/ha, evaluated three weeks after application
Procedure, shortened: as §3

SMILES | herbicidal effect rating, C: oval-leafed pondweed (oval-leafed pondweed) | herbicidal effect on I: wild oat (wild oat) | Herbicidal effect on B: Japanese bulrush (grade 0-5) (Japanese bulrush) | P: chickweed, herbicidal effect (criteria 0-5) (chickweed) | herbicidal effect on L: windgrass (windgrass) | G: green foxtail, herbicidal effect (criteria 0-5) (green foxtail) | herbicidal effect on F: southern crabgrass (southern crabgrass) | herbicidal effect on D: Chinese sprangletop (Chinese sprangletop) | herbicidal effect rating, A: late watergrass (late watergrass) | herbicidal effect on K: Italian ryegrass (Italian ryegrass [1]) | K: Italian ryegrass, herbicidal effect (criteria 0-5) (Italian ryegrass [2]) | O: lambsquarters, herbicidal effect (criteria 0-5) (lambsquarters [3]) | N: redroot pigweed, herbicidal effect (criteria 0-5) (redroot pigweed) | herbicidal effect on O: lambsquarters (lambsquarters [4]) | herbicidal effect on J: blackgrass (blackgrass) | M: velvetleaf, herbicidal effect (criteria 0-5) (velvetleaf)
Cc1nn(C)c(=O)c(-c2c(-c3ccc(OC(F)F)cc3)sc3ccc(F)cc23)c1OC(=S)Sc1ccccc1 [2-298] | 0 (Herbicidal rate of 5% or less (almost no effect)) | 0 (Herbicidal rate of 5% or less (almost no effect)) | 3 (Herbicidal rate of 40% or more and less than 70%) | 5 (Herbicidal rate of 90% or more (almost completely withered)) | 0 (Herbicidal rate of 5% or less (almost no effect)) | 5 (Herbicidal rate of 90% or more (almost completely withered)) | 0 (Herbicidal rate of 5% or less (almost no effect)) | 3 (Herbicidal rate of 40% or more and less than 70%) | 3 (Herbicidal rate of 40% or more and less than 70%) | 0 (Herbicidal rate of 5% or less (almost no effect)) | 5 (Herbicidal rate of 90% or more (almost completely withered)) | 5 (Herbicidal rate of 90% or more (almost completely withered)) | 5 (Herbicidal rate of 90% or more (almost completely withered)) | 3 (Herbicidal rate of 40% or more and less than 70%) | 0 (Herbicidal rate of 5% or less (almost no effect)) | 5 (Herbicidal rate of 90% or more (almost completely withered))
Cc1nn(C)c(=O)c(-c2c(-c3ccc(OC(F)F)cc3)sc3ccc(F)cc23)c1OCC(=O)c1ccccc1 [2-305] | 0 (Herbicidal rate of 5% or less (almost no effect)) | 0 (Herbicidal rate of 5% or less (almost no effect)) | 5 (Herbicidal rate of 90% or more (almost completely withered)) | 5 (Herbicidal rate of 90% or more (almost completely withered)) | 0 (Herbicidal rate of 5% or less (almost no effect)) | 5 (Herbicidal rate of 90% or more (almost completely withered)) | 0 (Herbicidal rate of 5% or less (almost no effect)) | 5 (Herbicidal rate of 90% or more (almost completely withered)) | 3 (Herbicidal rate of 40% or more and less than 70%) | 0 (Herbicidal rate of 5% or less (almost no effect)) | 4 (Herbicidal rate of 70% or more and less than 90%) | 5 (Herbicidal rate of 90% or more (almost completely withered)) | 5 (Herbicidal rate of 90% or more (almost completely withered)) | 3 (Herbicidal rate of 40% or more and less than 70%) | 0 (Herbicidal rate of 5% or less (almost no effect)) | 5 (Herbicidal rate of 90% or more (almost completely withered))
Cc1nn(C)c(=O)c(-c2c(-c3ccc(O)cc3)sc3ccc(F)cc23)c1O [2-337] | 0 (Herbicidal rate of 5% or less (almost no effect)) | 0 (Herbicidal rate of 5% or less (almost no effect)) | 3 (Herbicidal rate of 40% or more and less than 70%) | 5 (Herbicidal rate of 90% or more (almost completely withered)) | 0 (Herbicidal rate of 5% or less (almost no effect)) | 0 (Herbicidal rate of 5% or less (almost no effect)) | 0 (Herbicidal rate of 5% or less (almost no effect)) | 0 (Herbicidal rate of 5% or less (almost no effect)) | 0 (Herbicidal rate of 5% or less (almost no effect)) | 0 (Herbicidal rate of 5% or less (almost no effect)) | 0 (Herbicidal rate of 5% or less (almost no effect)) | 3 (Herbicidal rate of 40% or more and less than 70%) | 4 (Herbicidal rate of 70% or more and less than 90%) | 0 (Herbicidal rate of 5% or less (almost no effect)) | 0 (Herbicidal rate of 5% or less (almost no effect)) | 3 (Herbicidal rate of 40% or more and less than 70%)
CC(=O)c1ccc(-c2sc3ccc(F)cc3c2-c2c(O)c(C)nn(C)c2=O)cc1 [2-339] | 3 (Herbicidal rate of 40% or more and less than 70%) | 0 (Herbicidal rate of 5% or less (almost no effect)) | 5 (Herbicidal rate of 90% or more (almost completely withered)) | 5 (Herbicidal rate of 90% or more (almost completely withered)) | 2 (Herbicidal rate of 20% or more and less than 40%) | 4 (Herbicidal rate of 70% or more and less than 90%) | 0 (Herbicidal rate of 5% or less (almost no effect)) | 4 (Herbicidal rate of 70% or more and less than 90%) | 3 (Herbicidal rate of 40% or more and less than 70%) | 4 (Herbicidal rate of 70% or more and less than 90%) | 5 (Herbicidal rate of 90% or more (almost completely withered)) | 4 (Herbicidal rate of 70% or more and less than 90%) | 5 (Herbicidal rate of 90% or more (almost completely withered)) | 4 (Herbicidal rate of 70% or more and less than 90%) | 2 (Herbicidal rate of 20% or more and less than 40%) | 5 (Herbicidal rate of 90% or more (almost completely withered))
Cc1nn(C)c(=O)c(-c2c(-c3ccc([N+](=O)[O-])cc3)sc3ccc(F)cc23)c1O [2-341] | 3 (Herbicidal rate of 40% or more and less than 70%) | 3 (Herbicidal rate of 40% or more and less than 70%) | 4 (Herbicidal rate of 70% or more and less than 90%) | 5 (Herbicidal rate of 90% or more (almost completely withered)) | 1 (Herbicidal rate of 5% or more and less than 20%) | 5 (Herbicidal rate of 90% or more (almost completely withered)) | 5 (Herbicidal rate of 90% or more (almost completely withered)) | 3 (Herbicidal rate of 40% or more and less than 70%) | 3 (Herbicidal rate of 40% or more and less than 70%) | 5 (Herbicidal rate of 90% or more (almost completely withered)) | 5 (Herbicidal rate of 90% or more (almost completely withered)) | 5 (Herbicidal rate of 90% or more (almost completely withered)) | 5 (Herbicidal rate of 90% or more (almost completely withered)) | 4 (Herbicidal rate of 70% or more and less than 90%) | 0 (Herbicidal rate of 5% or less (almost no effect)) | 5 (Herbicidal rate of 90% or more (almost completely withered))
